Assay results from US20250223301A1, “KINASE INHIBITORS, PREPARATION METHODS AND USES THEREOF” (InventisBio Co., Ltd., priority 2022, published 2025).

Assays:
[1] = tested on: PBMC; test: Human PBMC IL-2 assay; format: cell-based; conditions: anti-CD3/CD28 stimulation overnight, IL-2 level
Description: PBMC (frozen) obtained from health donor were thawed in RPMI-1640 medium with 10% FBS and incubated for 4 h at 37° C. In a 96-well plate, −200,000 PBMC cells in 160 uL were added to each assay well. Ten microliter compound solution (10 uM to 0.6 nM, 8 points with 4-fold dilution) were added to cells in each well and incubated for 60 minutes at 37° C. Then 30 uL anti-CD3/CD28 antibody (Catalog #10991, Stemcell) were added to cells and incubated overnight at 37° C. After the incubation, 16 uL supernatants were transferred into a new 384-well white assay plate for cytokine analysis. IL-2 level was quantified using Human IL-2 kit (Catalog #62HIL02PEG, Cisbio) as described in the manufacturer manual.
(§1) X is log of compound concentration, Y is the IL-2 concentration, increasing as X increases.

[2] = tested on: Jurkat cells; test: Jurkat IL-2 assay; format: cell-based; conditions: Homo sapiens, anti-CD3/CD28 stimulation overnight, IL-2 level
Description: Jurkat cells (ATCC) were cultured in RPMI-1640 medium supplemented with 10% FBS. In a 96-well plate, −250,000 cells in 130 uL were added to each assay well. Ten microliter compound solution (5 uM to 2.3 nM, 8 points with 3-fold dilution) were added to cells in each well and incubated for 60 minutes at 37° C. Then 10 uL anti-CD3/CD28 antibody (Catalog #10991, Stemcell) were added and incubated overnight at 37° C. After the incubation, 16 uL supernatants were transferred into a new 384-well white assay plate for cytokine analysis. IL-2 was quantified using Human IL-2 kit (Catalog #62HIL02PEG, Cisbio) as described in the manufacturer manual.
as §1

`CC[C@@H]1CN2c3c(c(=O)n(C)c4ccc(C#N)nc34)OC[C@@H]2CN1[C@@H](CC)c1ccc(C(F)(F)F)cc1Cl` (stereo in doubt) [Compound 207] was tested, and the EC50 [1] was 284 nM and the EC50 [2] was 150 nM.
In the case of `CC[C@H]1CN([C@H](CC)c2c(Cl)cccc2Cl)[C@H](CC)CN1c1nc2nncn2c2ccc(C#N)nc12` (stereo in doubt) [Compound 209], the EC50 [1] is reported as 1380 nM and the EC50 [2] is reported as 1010 nM.
Molecule `CC[C@@H]1CN2c3c(c(=O)n(C)c4ccc(C#N)nc34)OC[C@@H]2CN1[C@@H](CC)c1ccc(OC(F)(F)F)cc1` (stereo in doubt) [Compound 212] has an EC50 [1] of 39 nM and an EC50 [2] of 11 nM.
`C[C@@H]1CN2c3c(c(=O)n(C)c4ccc(C#N)nc34)OC[C@@H]2CN1[C@H](C)c1ccc(C(F)(F)F)cc1` (stereo in doubt) [Compound 222] gave an EC50 [1] of 154 nM and an EC50 [2] of 144 nM.
`CC[C@@H]1CN2c3c(c(=O)n(CC)c4ccc(C#N)nc34)OC[C@@H]2CN1[C@@H](CC)c1ccc(C(F)(F)F)cc1` (stereo in doubt) [Compound 228] showed an EC50 [1] of 227 nM and an EC50 [2] of 87 nM.
`CC[C@@H]1CN2c3c(c(=O)n(C)c4ccc(C#N)nc34)OC[C@@H]2CN1[C@@H](CC)c1ccc(OC)cc1F` (stereo in doubt) [Compound 232] gave an EC50 [1] of 19 nM and an EC50 [2] of 47 nM.
`CC[C@@H]1CN2c3c(c(=O)n(C)c4ccc(C#N)nc34)OC[C@@H]2CN1[C@@H](CC)c1ccc(C(F)(F)F)cc1C` (stereo in doubt) [Compound 233] showed an EC50 [1] of 361 nM and an EC50 [2] of 287 nM.
Work on `CC[C@@H]1CN2c3c(c(=O)n(C)c4ccc(C#N)nc34)OC[C@@H]2CN1[C@H](CO)c1ccc(C(F)(F)F)cc1` (stereo in doubt) [Compound 236] yielded an EC50 [1] of 583 nM and an EC50 [2] of 98 nM.
In the case of `CC[C@@H](c1ccc(F)c(Cl)c1)N1C[C@H]2COc3c(c4nc(C#N)ccc4n(C)c3=O)N2C[C@H]1C` (stereo in doubt) [Compound 238], the EC50 [1] is reported as 78 nM and the EC50 [2] is reported as 189 nM.
Work on `CC[C@@H]1CN2c3c(c(=O)n(C)c4ccc(C#N)nc34)OC[C@@H]2CN1[C@H](CC)c1c(Cl)cccc1Cl` (stereo in doubt) [Compound 239] yielded an EC50 [1] of 3420 nM and an EC50 [2] of 687 nM.
In the case of `CC[C@@H]1CN2c3c(c(=O)n(C)c4ccc(C#N)nc34)OC[C@@H]2CN1[C@@H](CC)c1c(Cl)cccc1Cl` (stereo in doubt) [Compound 240], the EC50 [1] is reported as 109 nM and the EC50 [2] is reported as 242 nM.
`CC[C@@H]1CN2c3c(c(=O)n(C)c4ccc(C#N)nc34)OC[C@@H]2CN1[C@H](CC)c1ccc(Cl)cc1` (stereo in doubt) [Compound 243] showed an EC50 [1] of 212 nM and an EC50 [2] of 473 nM.
Work on `CC[C@@H]1CN2c3c(c(=O)n(C)c4ccc(C#N)nc34)OC[C@@H]2CN1[C@@H](CC)c1ccc(Cl)cc1` (stereo in doubt) [Compound 244] yielded an EC50 [1] of 11 nM and an EC50 [2] of 63 nM.
With `CC[C@@H]1CN2c3c(c(=O)n(C)c4ccc(C#N)nc34)OC[C@@H]2CN1[C@H](CC)c1ccc(C(F)(F)F)c(Cl)c1` (stereo in doubt) [Compound 245] the EC50 [1] was 314 nM and the EC50 [2] was 189 nM.
`C[C@@H]1CN2c3c(c(=O)n(C)c4ccc(C#N)nc34)OC[C@@H]2CN1[C@@H](C)c1ccc(Cl)c(Cl)c1` (stereo in doubt) [Compound 257] was tested, and the EC50 [1] was 119 nM and the EC50 [2] was 132 nM.
For `C[C@@H]1CN2c3c(c(=O)n(C)c4ccc(C#N)nc34)OC[C@@H]2CN1[C@H](C)c1ccc(Cl)c(Cl)c1` (stereo in doubt) [Compound 258], the EC50 [1] was 1100 nM and the EC50 [2] was 758 nM.
`C[C@@H]1CN2c3c(c(=O)n(C)c4ccc(C#N)nc34)OC[C@@H]2CN1[C@H](C)c1ccc(F)c(Cl)c1` (stereo in doubt) [Compound 259] showed an EC50 [1] of 1880 nM and an EC50 [2] of 624 nM.
In the case of `C[C@@H]1CN2c3c(c(=O)n(C)c4ccc(C#N)nc34)OC[C@@H]2CN1[C@@H](C)c1ccc(F)c(Cl)c1` (stereo in doubt) [Compound 260], the EC50 [1] is reported as 89 nM and the EC50 [2] is reported as 69 nM.
With `C[C@@H]1CN2c3c(c(=O)n(C)c4ccc(C#N)nc34)OC[C@@H]2CN1[C@H](C)c1ccc(Cl)cc1` (stereo in doubt) [Compound 270] the EC50 [1] was 616 nM and the EC50 [2] was 506 nM.
Work on `C[C@@H]1CN2c3c(c(=O)n(C)c4ccc(C#N)nc34)OC[C@@H]2CN1[C@@H](C)c1ccc(Cl)cc1` (stereo in doubt) [Compound 271] yielded an EC50 [1] of 57 nM and an EC50 [2] of 79 nM.
`C[C@@H]1CN2c3c(c(=O)n(C)c4ccc(C#N)nc34)OC[C@@H]2CN1[C@@H](C)c1ccc(Cl)cc1F` (stereo in doubt) [Compound 275] showed an EC50 [1] of 23 nM and an EC50 [2] of 51 nM.
`CC[C@@H](c1ccc(Cl)c(F)c1)N1C[C@H]2COc3c(c4nc(C#N)ccc4n(C)c3=O)N2C[C@H]1C` (stereo in doubt) [Compound 281] showed an EC50 [1] of 49 nM and an EC50 [2] of 118 nM.
`CC[C@@H]1CN2c3c(c(=O)n(C)c4ccc(C#N)nc34)OC[C@@H]2CN1[C@@H](CC)c1ccc(C(F)F)cc1` (stereo in doubt) [Compound 291] gave an EC50 [1] of 11 nM and an EC50 [2] of 10 nM.
For `CC[C@@H]1CN2c3c(c(=O)n(C)c4ccc(C#N)nc34)OC[C@@H]2CN1[C@@H](CC)c1ccc(Cl)cc1F` (stereo in doubt) [Compound 295], the EC50 [1] was 10 nM and the EC50 [2] was 8 nM.
For `CC[C@@H]1CN2c3c(c(=O)n(C)c4ccc(C#N)nc34)OC[C@@H]2CN1[C@H](CC)c1ccc(Cl)c(F)c1` (stereo in doubt) [Compound 296], the EC50 [1] was 68 nM and the EC50 [2] was 91 nM.
Work on `CC[C@@H]1CN2c3c(c(=O)n(C)c4ccc(C#N)nc34)OC[C@@H]2CN1[C@@H](CC)c1ccc(Cl)c(F)c1` (stereo in doubt) [Compound 297] yielded an EC50 [1] of 12 nM and an EC50 [2] of 34 nM.
`C[C@@H]1CN2c3c(c(=O)n(C)c4ccc(C#N)nc34)OC[C@@H]2CN1[C@H](C)c1ccc(C(C)(F)F)cc1` (stereo in doubt) [Compound 303] showed an EC50 [1] of 105 nM and an EC50 [2] of 153 nM.
In the case of `C[C@@H]1CN2c3c(c(=O)n(C)c4ccc(C#N)nc34)OC[C@@H]2CN1[C@@H](C)c1ccc(C(C)(F)F)cc1` (stereo in doubt) [Compound 304], the EC50 [1] is reported as 24 nM and the EC50 [2] is reported as 34 nM.
In the case of `CC[C@@H](c1ccc(C(F)(F)F)cc1F)N1C[C@H]2COc3c(c4nc(C#N)ccc4n(C)c3=O)N2C[C@H]1C` (stereo in doubt) [Compound 306], the EC50 [1] is reported as 30 nM and the EC50 [2] is reported as 36 nM.
For `CC[C@@H](c1ccc(Cl)cc1F)N1C[C@H]2COc3c(c4nc(C#N)ccc4n(C)c3=O)N2C[C@H]1C` (stereo in doubt) [Compound 308], the EC50 [1] was 18 nM and the EC50 [2] was 9 nM.
`CCC[C@@H](c1ccc(Cl)cc1)N1C[C@H]2COc3c(c4nc(C#N)ccc4n(C)c3=O)N2C[C@H]1CC` (stereo in doubt) [Compound 311] gave an EC50 [1] of 1 nM and an EC50 [2] of 54 nM.
For `CCC[C@H](c1ccc(Cl)cc1)N1C[C@H]2COc3c(c4nc(C#N)ccc4n(C)c3=O)N2C[C@H]1CC` (stereo in doubt) [Compound 312], the EC50 [1] was 49 nM and the EC50 [2] was 218 nM.
With `C[C@@H]1CN2c3c(c(=O)n(C)c4ccc(C#N)nc34)OC[C@@H]2CN1[C@H](C)c1ccc(C(F)F)cc1` (stereo in doubt) [Compound 314] the EC50 [1] was 22 nM and the EC50 [2] was 77 nM.
For `CC[C@H]1CN([C@H](C)c2ccc(C(F)(F)F)cc2)[C@H](C)CN1c1nc2nncn2c2ccc(C#N)nc12` (stereo in doubt) [Compound 315], the EC50 [1] was 63 nM and the EC50 [2] was 90 nM.
`CC[C@H]1CN([C@@H](C)c2ccc(C(F)(F)F)cc2)[C@H](C)CN1c1nc2nncn2c2ccc(C#N)nc12` (stereo in doubt) [Compound 316] was tested, and the EC50 [1] was 742 nM and the EC50 [2] was 707 nM.
In the case of `CC[C@H](c1ccc(Cl)c(C(F)(F)F)c1)N1C[C@H]2COc3c(c4nc(C#N)ccc4n(C)c3=O)N2C[C@H]1C` (stereo in doubt) [Compound 317], the EC50 [1] is reported as 105 nM and the EC50 [2] is reported as 21 nM.
Molecule `CC[C@@H](c1ccc(Cl)c(C(F)(F)F)c1)N1C[C@H]2COc3c(c4nc(C#N)ccc4n(C)c3=O)N2C[C@H]1C` (stereo in doubt) [Compound 318] has an EC50 [1] of 349 nM and an EC50 [2] of 359 nM.
Molecule `CC[C@@H]1CN2c3c(c(=O)n(C)c4ccc(C#N)nc34)OC[C@@H]2CN1[C@@H](CC)c1ccc(C(F)(F)F)c(F)c1` (stereo in doubt) [Compound 319] has an EC50 [1] of 285 nM and an EC50 [2] of 519 nM.
For `CC[C@@H]1CN2c3c(c(=O)n(C)c4ccc(C#N)nc34)OC[C@@H]2CN1[C@H](CC)c1ccc(C(F)(F)F)c(F)c1` (stereo in doubt) [Compound 320], the EC50 [1] was 56 nM and the EC50 [2] was 42 nM.
For `CC[C@H](c1ccc(Cl)c(Cl)c1)N1C[C@H]2COc3c(c4nc(C#N)ccc4n(C)c3=O)N2C[C@H]1C` (stereo in doubt) [Compound 321], the EC50 [1] was 540 nM and the EC50 [2] was 223 nM.
Molecule `CC[C@H](c1ccc(C(F)(F)F)c(Cl)c1)N1C[C@H]2COc3c(c4nc(C#N)ccc4n(C)c3=O)N2C[C@H]1C` (stereo in doubt) [Compound 323] has an EC50 [1] of 474 nM and an EC50 [2] of 364 nM.
Work on `CC[C@@H](c1ccc(C(F)(F)F)c(Cl)c1)N1C[C@H]2COc3c(c4nc(C#N)ccc4n(C)c3=O)N2C[C@H]1C` (stereo in doubt) [Compound 324] yielded an EC50 [1] of 49 nM and an EC50 [2] of 95 nM.
